What was measured:
[1] = target: Tyrosine-protein kinase Fgr (Homo sapiens) (UniProt P09769); experiment: Selectivity interaction (Millipore kinase profiler) EUB0000124b FGR; conditions: at 10 µM
[2] = target: Dual specificity mitogen-activated protein kinase kinase 1 (Homo sapiens, UniProt Q02750)
[3] = target: Serine/threonine-protein kinase 35 (Homo sapiens) (UniProt Q8TDR2); experiment: Selectivity interaction (KinomeScan (DiscoverX)) EUB0000595a STK35; conditions: at 10 µM
[4] = target: Macrophage colony-stimulating factor 1 receptor (Homo sapiens) (UniProt P07333); conditions: at 10 µM
Chain of Macrophage colony-stimulating factor 1 receptor (Homo sapiens) (P07333 whole entry): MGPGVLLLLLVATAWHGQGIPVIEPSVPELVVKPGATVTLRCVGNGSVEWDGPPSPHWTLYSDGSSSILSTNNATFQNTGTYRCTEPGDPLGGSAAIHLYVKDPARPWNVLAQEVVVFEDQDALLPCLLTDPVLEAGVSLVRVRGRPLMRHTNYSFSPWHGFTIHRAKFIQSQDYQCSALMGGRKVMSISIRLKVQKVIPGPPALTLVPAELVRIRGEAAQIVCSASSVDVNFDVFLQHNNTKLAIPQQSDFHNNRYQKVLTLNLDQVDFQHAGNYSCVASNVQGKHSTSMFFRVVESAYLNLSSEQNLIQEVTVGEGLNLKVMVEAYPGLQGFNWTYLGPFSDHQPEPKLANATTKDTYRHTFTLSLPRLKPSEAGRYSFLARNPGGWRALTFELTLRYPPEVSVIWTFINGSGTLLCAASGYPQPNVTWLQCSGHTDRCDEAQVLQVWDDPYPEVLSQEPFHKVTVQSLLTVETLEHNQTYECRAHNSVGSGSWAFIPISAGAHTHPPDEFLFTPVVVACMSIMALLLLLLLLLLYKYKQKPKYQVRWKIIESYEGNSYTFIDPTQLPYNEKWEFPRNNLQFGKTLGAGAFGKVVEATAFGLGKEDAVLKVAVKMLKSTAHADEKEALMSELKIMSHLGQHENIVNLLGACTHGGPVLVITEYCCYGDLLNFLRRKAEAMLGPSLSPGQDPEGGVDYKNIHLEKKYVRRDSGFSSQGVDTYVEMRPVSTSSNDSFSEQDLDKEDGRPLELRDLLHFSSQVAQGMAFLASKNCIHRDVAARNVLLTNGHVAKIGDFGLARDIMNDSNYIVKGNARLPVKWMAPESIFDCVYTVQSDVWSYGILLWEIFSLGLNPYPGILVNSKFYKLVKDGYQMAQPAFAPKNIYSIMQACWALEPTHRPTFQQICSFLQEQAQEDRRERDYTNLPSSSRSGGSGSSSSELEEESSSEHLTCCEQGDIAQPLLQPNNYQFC

[5] = target: T1, Membrane-associated tyrosine- and threonine-specific cdc2-inhibitory kinase (Homo sapiens) (UniProt Q99640); conditions: at 10 µM
T1 sequence (whole entry): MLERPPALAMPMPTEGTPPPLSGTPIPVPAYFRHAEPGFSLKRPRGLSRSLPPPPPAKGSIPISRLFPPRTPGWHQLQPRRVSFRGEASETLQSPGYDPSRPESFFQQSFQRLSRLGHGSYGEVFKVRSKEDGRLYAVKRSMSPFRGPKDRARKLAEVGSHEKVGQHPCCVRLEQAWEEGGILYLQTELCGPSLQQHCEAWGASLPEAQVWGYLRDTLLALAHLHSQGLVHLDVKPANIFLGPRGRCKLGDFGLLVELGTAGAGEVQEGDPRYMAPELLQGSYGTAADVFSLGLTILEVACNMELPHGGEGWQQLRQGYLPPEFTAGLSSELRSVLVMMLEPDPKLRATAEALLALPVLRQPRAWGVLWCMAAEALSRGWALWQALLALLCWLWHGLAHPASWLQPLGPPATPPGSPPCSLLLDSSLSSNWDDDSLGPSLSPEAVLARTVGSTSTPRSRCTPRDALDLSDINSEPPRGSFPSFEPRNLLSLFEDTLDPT

[6] = target: Tyrosine-protein kinase CSK (Homo sapiens) (UniProt P41240); experiment: Selectivity interaction (ActivX KiNativ screen (kinase selectivity in THP-1 cell lysates)) EUB0000639a CSK; type: subcellular; conditions: lysate
Chain of Tyrosine-protein kinase CSK (Homo sapiens) (P41240 2-450 limits assumed): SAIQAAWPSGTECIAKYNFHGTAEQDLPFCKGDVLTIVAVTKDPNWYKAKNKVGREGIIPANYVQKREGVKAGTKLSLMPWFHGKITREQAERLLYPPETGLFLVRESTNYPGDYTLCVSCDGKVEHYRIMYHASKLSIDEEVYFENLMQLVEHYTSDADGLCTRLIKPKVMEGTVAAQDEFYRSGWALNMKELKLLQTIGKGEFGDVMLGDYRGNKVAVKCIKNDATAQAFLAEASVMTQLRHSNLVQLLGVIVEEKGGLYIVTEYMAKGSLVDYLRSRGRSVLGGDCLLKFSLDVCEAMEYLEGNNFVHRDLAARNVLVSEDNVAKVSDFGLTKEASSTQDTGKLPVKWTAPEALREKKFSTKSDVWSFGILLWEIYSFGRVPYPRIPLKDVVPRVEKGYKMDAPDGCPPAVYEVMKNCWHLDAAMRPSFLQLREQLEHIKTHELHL

[7] = target: Tyrosine-protein kinase Fer (Homo sapiens) (UniProt P16591); experiment: Selectivity interaction (ActivX KiNativ screen (kinase selectivity in THP-1 cell lysates)) EUB0000639a FER; type: subcellular; conditions: lysate, at 0.04 µM
Chain of Tyrosine-protein kinase Fer (Homo sapiens) (P16591 whole entry, looked up): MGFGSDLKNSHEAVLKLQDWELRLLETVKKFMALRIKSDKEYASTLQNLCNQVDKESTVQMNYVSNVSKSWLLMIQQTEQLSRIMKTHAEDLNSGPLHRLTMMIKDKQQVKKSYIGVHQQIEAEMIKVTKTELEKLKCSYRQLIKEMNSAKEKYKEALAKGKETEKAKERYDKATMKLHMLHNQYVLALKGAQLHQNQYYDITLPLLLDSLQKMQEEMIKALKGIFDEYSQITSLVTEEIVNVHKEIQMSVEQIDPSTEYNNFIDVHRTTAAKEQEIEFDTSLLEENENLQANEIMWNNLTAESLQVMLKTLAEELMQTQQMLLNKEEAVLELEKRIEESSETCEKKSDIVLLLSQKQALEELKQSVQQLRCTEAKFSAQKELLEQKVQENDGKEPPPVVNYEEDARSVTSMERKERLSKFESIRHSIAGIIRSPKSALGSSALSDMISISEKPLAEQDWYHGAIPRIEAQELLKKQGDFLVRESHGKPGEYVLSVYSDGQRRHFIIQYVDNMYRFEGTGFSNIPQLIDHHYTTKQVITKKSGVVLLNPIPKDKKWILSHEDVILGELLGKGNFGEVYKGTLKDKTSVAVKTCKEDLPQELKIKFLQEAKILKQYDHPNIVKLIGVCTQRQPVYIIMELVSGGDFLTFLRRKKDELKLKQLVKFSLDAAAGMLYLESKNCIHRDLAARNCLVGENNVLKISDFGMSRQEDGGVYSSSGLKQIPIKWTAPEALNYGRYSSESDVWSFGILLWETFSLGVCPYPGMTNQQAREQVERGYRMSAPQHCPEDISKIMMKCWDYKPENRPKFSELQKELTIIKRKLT

[8] = target: T2, Serine/threonine-protein kinase haspin (Homo sapiens) (UniProt Q8TF76); experiment: Selectivity interaction (Kinase panel (Invitrogen)) EUB0000639a GSG2; conditions: at 200 nM
T2 sequence (whole entry): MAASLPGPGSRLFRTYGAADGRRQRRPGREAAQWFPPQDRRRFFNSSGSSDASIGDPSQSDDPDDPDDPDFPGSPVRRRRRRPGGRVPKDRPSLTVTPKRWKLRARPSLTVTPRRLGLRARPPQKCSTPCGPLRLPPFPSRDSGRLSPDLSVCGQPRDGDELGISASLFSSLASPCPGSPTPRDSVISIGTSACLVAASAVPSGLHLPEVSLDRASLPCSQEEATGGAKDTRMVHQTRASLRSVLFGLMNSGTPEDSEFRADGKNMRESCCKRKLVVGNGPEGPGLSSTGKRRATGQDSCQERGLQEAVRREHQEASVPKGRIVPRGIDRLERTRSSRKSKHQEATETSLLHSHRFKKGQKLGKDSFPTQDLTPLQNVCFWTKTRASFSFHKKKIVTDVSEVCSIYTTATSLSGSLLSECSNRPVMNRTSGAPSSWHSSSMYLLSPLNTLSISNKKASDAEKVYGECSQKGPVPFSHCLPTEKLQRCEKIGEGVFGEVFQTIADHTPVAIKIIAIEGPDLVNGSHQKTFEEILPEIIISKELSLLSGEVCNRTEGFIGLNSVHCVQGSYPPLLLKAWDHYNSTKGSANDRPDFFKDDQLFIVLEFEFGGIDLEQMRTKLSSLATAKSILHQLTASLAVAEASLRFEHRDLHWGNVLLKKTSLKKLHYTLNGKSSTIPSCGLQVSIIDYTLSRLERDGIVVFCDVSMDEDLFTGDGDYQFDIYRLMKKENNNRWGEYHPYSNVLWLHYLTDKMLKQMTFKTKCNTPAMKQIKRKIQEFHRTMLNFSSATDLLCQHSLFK

[9] = target: MAP/microtubule affinity-regulating kinase 3 (Homo sapiens) (UniProt P27448); experiment: Selectivity interaction (ActivX KiNativ screen (kinase selectivity in THP-1 cell lysates)) EUB0000639a MARK3; type: subcellular; conditions: lysate, at 0.04 µM
[10] = target: Phosphatidylinositol 4-phosphate 5-kinase type-1 alpha (Homo sapiens) (UniProt Q99755); experiment: Selectivity interaction (KinomeScan (DiscoverX)) EUB0001868a PIP5K1A; conditions: at 1 µM
[11] = target: Serine/threonine-protein kinase 33 (Homo sapiens) (UniProt Q9BYT3); experiment: Selectivity interaction (LanthaScreen Eu Kinase Binding Assay) EUB0001632a STK33; conditions: at 10 µM
[12] = target: Rho-associated protein kinase 2 (Homo sapiens, UniProt O75116); experiment: Selectivity interaction (Kinase screening (Upstate/Millipore)) EUB0000604a ROCK2
Chain of Rho-associated protein kinase 2 (O75116 whole entry, looked up): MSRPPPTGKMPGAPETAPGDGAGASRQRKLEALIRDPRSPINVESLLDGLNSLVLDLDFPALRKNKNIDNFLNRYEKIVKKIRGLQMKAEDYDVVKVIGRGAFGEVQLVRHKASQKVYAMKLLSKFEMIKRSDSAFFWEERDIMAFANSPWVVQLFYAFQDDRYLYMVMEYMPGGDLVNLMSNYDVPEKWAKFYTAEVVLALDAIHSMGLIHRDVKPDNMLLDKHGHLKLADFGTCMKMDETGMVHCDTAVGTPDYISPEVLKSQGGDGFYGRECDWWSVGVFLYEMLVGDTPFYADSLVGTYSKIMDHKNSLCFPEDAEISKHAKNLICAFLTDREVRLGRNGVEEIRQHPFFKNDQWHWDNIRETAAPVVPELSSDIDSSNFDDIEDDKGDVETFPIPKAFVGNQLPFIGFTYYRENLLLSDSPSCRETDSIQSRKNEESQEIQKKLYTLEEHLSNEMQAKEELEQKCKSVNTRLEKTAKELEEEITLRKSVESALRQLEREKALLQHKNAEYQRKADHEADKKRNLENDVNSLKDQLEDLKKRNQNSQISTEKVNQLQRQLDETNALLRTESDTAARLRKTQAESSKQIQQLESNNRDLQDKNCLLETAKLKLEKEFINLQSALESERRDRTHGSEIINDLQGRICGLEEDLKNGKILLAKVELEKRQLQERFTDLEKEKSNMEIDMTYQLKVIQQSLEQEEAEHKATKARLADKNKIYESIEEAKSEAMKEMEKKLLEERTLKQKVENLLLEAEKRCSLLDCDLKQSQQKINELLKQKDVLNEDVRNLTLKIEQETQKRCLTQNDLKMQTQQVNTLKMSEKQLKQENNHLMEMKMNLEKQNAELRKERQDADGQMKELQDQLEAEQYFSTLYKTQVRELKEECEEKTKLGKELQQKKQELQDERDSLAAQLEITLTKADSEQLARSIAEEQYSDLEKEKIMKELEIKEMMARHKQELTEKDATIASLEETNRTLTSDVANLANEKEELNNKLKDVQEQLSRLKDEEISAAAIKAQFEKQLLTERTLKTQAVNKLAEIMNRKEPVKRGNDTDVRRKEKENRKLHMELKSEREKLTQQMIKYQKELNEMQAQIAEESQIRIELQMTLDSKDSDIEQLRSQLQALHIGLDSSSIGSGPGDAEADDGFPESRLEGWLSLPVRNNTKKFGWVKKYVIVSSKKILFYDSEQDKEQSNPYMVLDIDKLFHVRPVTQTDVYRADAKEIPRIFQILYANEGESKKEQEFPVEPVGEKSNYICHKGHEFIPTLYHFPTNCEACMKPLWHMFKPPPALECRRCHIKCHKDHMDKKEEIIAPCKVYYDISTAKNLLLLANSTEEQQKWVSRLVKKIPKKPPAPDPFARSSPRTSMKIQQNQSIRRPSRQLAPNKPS

[13] = target: NT-3 growth factor receptor (Homo sapiens, UniProt Q16288); experiment: Selectivity interaction (KinomeScan (DiscoverX)) EUB0000695a NTRK3; conditions: at 100 nM
Chain of NT-3 growth factor receptor (Q16288 32-839 limits assumed): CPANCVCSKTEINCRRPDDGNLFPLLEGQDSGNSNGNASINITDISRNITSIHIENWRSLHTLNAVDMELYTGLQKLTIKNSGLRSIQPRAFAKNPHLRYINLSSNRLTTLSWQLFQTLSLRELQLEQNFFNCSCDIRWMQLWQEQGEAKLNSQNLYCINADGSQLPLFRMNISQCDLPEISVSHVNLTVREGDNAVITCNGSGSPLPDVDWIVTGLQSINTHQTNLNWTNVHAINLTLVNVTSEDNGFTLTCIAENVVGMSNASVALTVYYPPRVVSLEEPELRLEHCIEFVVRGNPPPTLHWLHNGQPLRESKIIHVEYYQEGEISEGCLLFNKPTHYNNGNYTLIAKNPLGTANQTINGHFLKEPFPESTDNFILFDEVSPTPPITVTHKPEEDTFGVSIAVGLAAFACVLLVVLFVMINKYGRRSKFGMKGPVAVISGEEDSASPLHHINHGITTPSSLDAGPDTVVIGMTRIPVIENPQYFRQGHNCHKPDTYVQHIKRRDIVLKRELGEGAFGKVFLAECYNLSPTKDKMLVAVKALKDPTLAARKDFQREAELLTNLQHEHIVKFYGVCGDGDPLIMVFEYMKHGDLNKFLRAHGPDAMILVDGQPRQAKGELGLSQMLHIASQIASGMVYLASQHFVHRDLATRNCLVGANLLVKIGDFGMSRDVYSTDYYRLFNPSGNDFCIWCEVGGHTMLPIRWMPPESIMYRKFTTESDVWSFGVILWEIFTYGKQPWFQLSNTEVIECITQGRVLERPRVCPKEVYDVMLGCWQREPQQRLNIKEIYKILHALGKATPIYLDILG

Chain of Dual specificity mitogen-activated protein kinase kinase 1 (Q02750 whole entry): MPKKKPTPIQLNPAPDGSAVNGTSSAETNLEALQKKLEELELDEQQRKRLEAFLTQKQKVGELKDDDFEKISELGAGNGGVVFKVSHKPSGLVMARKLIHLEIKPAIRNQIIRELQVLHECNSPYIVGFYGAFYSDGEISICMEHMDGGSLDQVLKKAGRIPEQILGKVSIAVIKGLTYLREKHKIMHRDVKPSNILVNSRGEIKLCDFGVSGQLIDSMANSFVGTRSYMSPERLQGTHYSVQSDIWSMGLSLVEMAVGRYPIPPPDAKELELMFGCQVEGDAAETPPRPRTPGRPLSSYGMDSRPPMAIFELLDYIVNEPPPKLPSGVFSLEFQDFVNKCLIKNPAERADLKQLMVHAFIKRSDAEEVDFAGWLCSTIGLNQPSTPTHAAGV

## CC(=O)Nc1cccc(-n2c(=O)n(C3CC3)c(=O)c3c(Nc4ccc(I)cc4F)n(C)c(=O)c(C)c32)c1
[1]
  % of control: 86%
[2]
  Kdapp: 62 nM

## COCC(=O)NC/C=C/c1ccc2ncnc(Nc3ccc(Oc4ccc(C)nc4)c(C)c3)c2c1 [CP-724714]
[3]
  % of control: 65%

## Cc1cc([C@@H](C)Nc2ccccc2C(=O)O)c2nc(N3CCOCC3)cc(=O)n2c1 [AZD-6482]
[4]
  % of control: 94%
[5]
  % of control: 100%

## CC[C@@H]1[C@H](F)C(=O)N[C@@H]1COc1nccc2cc(C(N)=O)c(OC)cc12 [ZIMLOVISERTIB]
[6]; at 0.01 µM
  % of inhibition: 4.3%
[6]; at 0.04 µM
  % of inhibition: -0.3%
[6]; at 0.2 µM
  % of inhibition: -3.8%
[6]; at 1 µM
  % of inhibition: 10.3%
[6]; at 5 µM
  % of inhibition: -8.3%
[7]
  % of inhibition: -11.5%
[8]
  % of inhibition: 41.1%
[9]
  % of inhibition: -13.3%

## Cc1cc(-c2ccnc(Nc3cnn(C)c3)n2)ccc1CNC(=O)N1CC(OC(C)C)C1
[10]
  % of control: 28%

## Cn1cc(-n2cnc3c(NCc4nc5cc(Cl)c(Cl)cc5[nH]4)nc(N4CCOCC4)nc32)cn1
[11]
  % of inhibition: -17.6%

## Cc1cnc(Nc2ccc(F)cc2Cl)nc1-c1c[nH]c(C(=O)N[C@H](CO)c2cccc(Cl)c2)c1
[12]
  % of inhibition: 57%

## Cc1cc(F)c(C(=O)Nc2cccc(-c3nncn3C(C)C)n2)cc1-n1cnc(C2CC2)c1
[13]
  % of control: 86%

From ChEMBL document CHEMBL5465560, “Selectivity Literature for EUbOPEN Chemogenomic Library” (2024)
